According to US20230345986A1, “CONJUGATED DIYNES AND THEIR USE AS FLAVOR MODIFIERS” (Firmenich SA, priority 2020, published 2023):

Key:
[1] = Sensory testing for cooling/burning (tasting of compound in water solution); type: in vivo; details: for taste attributes: 20 mg/L in water solution
Procedure: At 2 mg/L, Compound 130 was tasteless.
At 39.2 mg/L, the tingling effect was weak. […] At 2 mg/L, Compound 101 was tasteless.

[2] = test system: panel of 20 taste testers; assay: Sensory testing for salt enhancement (taste panel, sodium chloride solution); type: in vivo; set-up: key to Difference (salt enhancement effect relative to the same salt solution without the enhancer): None: No effect; +: Weak; ++: Moderate; +++: Strong
Procedure: Compounds 101 and 130 were evaluated for their salt-enhancement effects by a panel of 20 taste testers. The test compounds were added to solutions (0.25 wt %) sodium chloride, and tested for their sale enhancement effect relative to the same salt solution without the enhancer.

[3] = 10 ppm test compound in 0.25 wt % sodium chloride solution
[4] = 20 ppm test compound in 0.25 wt % sodium chloride solution

SMILES	taste description ([1]; 2 mg/L in water solution)	taste attributes [1]	tingling effect ([1]; 39.2 mg/L in water solution)	taste description ([1]; 125 mg/L in water solution)	Difference (salt enhancement effect relative to the same salt solution without the enhancer) [2, 3]	Remarks (salt enhancement effect) [2, 3]	Difference (salt enhancement effect relative to the same salt solution without the enhancer) [2, 4]	Remarks (salt enhancement effect) [2, 4]	taste description ([1]; 42 mg/L in water solution)
C#CC#CCCCCC(=O)N1CCCCC1 [Compound 101, nona-6,8-diynoic acid piperidide]	tasteless	astringent, bitter, herbal, earthy and green	weak	tingling (mid intensity), bitter, metallic, astringent and triggered an uncomfortable feeling in the throat when swallowed	None	No effect	+	Weak	–
C#CC#CCC/C=C/C=C/C(=O)N1CCCCC1 [Compound 130, (E,E)-2,4-undecadien-8,10-diynoic acid piperidide]	tasteless	astringent, bitter, salty, earthy, herbal, and cooling, but no warm and hot sensation was perceived	–	–	++	Moderate	++	Moderate	long-lasting warm, hot, weak cooling after taste, as well as bitter and astringent
